Assays:
Assay type in all cases: functional
HL-60(TB) = assay: Cytotoxicity against human HL-60(TB) cells after 48 hrs by SRB assay; details: HL-60, 48 h
NCI-H522 = assay: Cytotoxicity against human NCI-H522 cells after 48 hrs by SRB assay; details: NCI-H522, 48 h
SF-295 = assay: Cytotoxicity against human SF295 cells after 48 hrs by SRB assay; details: SF-295, 48 h
SK-MEL-5 = assay: Cytotoxicity against human SK-MEL-5 cells after 48 hrs by SRB assay; details: SK-MEL-5, 48 h
UACC-257 = assay: Cytotoxicity against human UACC257 cells after 48 hrs by SRB assay; details: UACC-257, 48 h
IGROV-1 [1] = assay: Cytotoxicity against human IGROV1 cells after 48 hrs by SRB assay; details: IGROV-1, 48 h, read-out: LC50 (the source's name)
OVCAR-3 [2] = assay: Cytotoxicity against human OVCAR3 cells after 48 hrs by SRB assay; details: OVCAR-3, 48 h
OVCAR-8 [3] = assay: Cytotoxicity against human OVCAR8 cells after 48 hrs by SRB assay; details: OVCAR-8, 48 h
MOLT-4 [4] = assay: Growth inhibition of human MOLT4 cells assessed as cell growth at 10^-8 M incubated for 48 hrs by sulforhodamine B assay relative to control; details: MOLT-4, 48 h, read-out: Activity
RPMI-8226 = assay: Growth inhibition of human RPMI8226 cells assessed as cell growth at 10^-8 M incubated for 48 hrs by sulforhodamine B assay relative to control; details: RPMI-8226, 48 h, read-out: Activity
A549 = assay: Growth inhibition of human A549/ATCC cells assessed as cell growth at 10^-8 M incubated for 48 hrs by sulforhodamine B assay relative to control; details: A549, 48 h, read-out: Activity
HOP-92 = assay: Growth inhibition of human HOP92 cells assessed as cell growth at 10^-8 M incubated for 48 hrs by sulforhodamine B assay relative to control; details: HOP-92, 48 h, read-out: Activity
NCI-H322M [5] = assay: Growth inhibition of human NCI-H322M cells assessed as cell growth at 10^-8 M incubated for 48 hrs by sulforhodamine B assay relative to control; details: read-out: Activity
HCT-116 [6] = assay: Growth inhibition of human HCT116 cells assessed as cell growth at 10^-8 M incubated for 48 hrs by sulforhodamine B assay relative to control; details: HCT-116, 48 h, read-out: Activity
IGROV-1 [7] = assay: Growth inhibition of human IGROV1 cells assessed as cell growth at 10^-8 M incubated for 48 hrs by sulforhodamine B assay relative to control; details: IGROV-1, 48 h, read-out: Activity
OVCAR-3 [8] = assay: Growth inhibition of human OVCAR3 cells assessed as cell growth at 10^-8 M incubated for 48 hrs by sulforhodamine B assay relative to control; details: OVCAR-3, 48 h, read-out: Activity
NCI/ADR-RES [9] = assay: Growth inhibition of human NCI/ADR-RES cells assessed as cell growth at 10^-8 M incubated for 48 hrs by sulforhodamine B assay relative to control; details: read-out: Activity
SN12C [10] = assay: Growth inhibition of human SN12C cells assessed as cell growth at 10^-8 M incubated for 48 hrs by sulforhodamine B assay relative to control; details: read-out: Activity
MOLT-4 [11] = assay: Growth inhibition of human MOLT4 cells assessed as cell growth at 10^-7 M incubated for 48 hrs by sulforhodamine B assay relative to control; details: MOLT-4, 48 h, read-out: Activity
NCI-H226 = assay: Growth inhibition of human NCI-H226 cells assessed as cell growth at 10^-7 M incubated for 48 hrs by sulforhodamine B assay relative to control; details: NCI-H226, 48 h, read-out: Activity
NCI-H322M [12] = assay: Growth inhibition of human NCI-H322M cells assessed as cell growth at 10^-7 M incubated for 48 hrs by sulforhodamine B assay relative to control; details: read-out: Activity
OVCAR-3 [13] = assay: Growth inhibition of human OVCAR3 cells assessed as cell growth at 10^-7 M incubated for 48 hrs by sulforhodamine B assay relative to control; details: OVCAR-3, 48 h, read-out: Activity
UO-31 = assay: Growth inhibition of human UO31 cells assessed as cell growth at 10^-7 M incubated for 48 hrs by sulforhodamine B assay relative to control; details: UO-31, 48 h, read-out: Activity
OVCAR-8 [14] = assay: Growth inhibition of human OVCAR8 cells assessed as cell growth at 10^-6 M incubated for 48 hrs by sulforhodamine B assay relative to control; details: OVCAR-8, 48 h, read-out: Activity
K562 = assay: Growth inhibition of human K562 cells assessed as cell growth at 10^-5 M incubated for 48 hrs by sulforhodamine B assay relative to control; details: K562, 48 h, read-out: Activity
KM12 = assay: Growth inhibition of human KM12 cells assessed as cell growth at 10^-5 M incubated for 48 hrs by sulforhodamine B assay relative to control; details: KM12, 48 h, read-out: Activity
SN12C [15] = assay: Growth inhibition of human SN12C cells assessed as cell growth at 10^-5 M incubated for 48 hrs by sulforhodamine B assay relative to control; details: read-out: Activity
HCT-116 [16] = assay: Growth inhibition of human HCT116 cells assessed as cell growth at 10^-4 M incubated for 48 hrs by sulforhodamine B assay relative to control; details: HCT-116, 48 h, read-out: Activity
786-0 = assay: Cytotoxicity against human 786-0 cells after 48 hrs by SRB assay; details: 786-0, 48 h
NCI/ADR-RES [17] = assay: Growth inhibition of human NCI/ADR-RES cells assessed as cell growth at 10^-5 M incubated for 48 hrs by sulforhodamine B assay relative to control; details: read-out: Activity
[18] = read-out: pLC50 (the source's name) (converted)
[19] = read-out: LC50 (the source's name)

**Q.** Which GI50 (HL-60(TB); read-out: GI50) does the source give for `C#C[C@@]1(O)[C@@H](CO)O[C@@H](n2cc(I)c3c(N)ncnc32)[C@@H]1O` here?
**A.** The GI50 was 31.5 to 67.8 nM.

**Q.** What about the TGI (HL-60(TB); read-out: TGI) of the same molecule?
**A.** The TGI was 200 to 343 nM.

**Q.** What about the CC50 (HL-60(TB); [18]) of the same molecule?
**A.** The CC50 was over 100 µM.

**Q.** What about the GI50 (NCI-H522; read-out: GI50) of the same molecule?
**A.** The GI50 was 64.8 to 152 nM.

**Q.** What about the CC50 (NCI-H522; [19]) of the same molecule?
**A.** The CC50 was over 100 µM.

**Q.** What about the TGI (NCI-H522; read-out: TGI) of the same molecule?
**A.** The TGI was 516 to 698 nM.

**Q.** And the GI50 (SF-295; read-out: GI50)?
**A.** Its GI50 is 251 to 432 nM.

**Q.** What about the CC50 (SF-295; [19]) of the same molecule?
**A.** The CC50 was over 100 µM.

**Q.** What about the TGI (SF-295; read-out: TGI) of the same molecule?
**A.** Its TGI is 3.77 µM.

**Q.** What about the TGI (SF-295; read-out: pTGI (converted)) of the same molecule?
**A.** Its TGI is 3.8 µM.

**Q.** And the GI50 (SK-MEL-5; read-out: GI50)?
**A.** Its GI50 is 179 to 243 nM.

**Q.** What about the CC50 (SK-MEL-5; [19]) of the same molecule?
**A.** Its CC50 is over 100 µM.

**Q.** And the TGI (SK-MEL-5; read-out: TGI)?
**A.** The TGI was 2.09 to 5.2 µM.

**Q.** What about the GI50 (UACC-257; read-out: GI50) of the same molecule?
**A.** Its GI50 is 2180 to 2500 nM.

**Q.** What about the CC50 (UACC-257; [19]) of the same molecule?
**A.** The CC50 was over 100 µM.

**Q.** And the TGI (UACC-257; read-out: TGI)?
**A.** The TGI was 18.6 to 41.5 µM.

**Q.** What about the CC50 (IGROV-1 [1]) of the same molecule?
**A.** The CC50 was over 100 µM.

**Q.** And the GI50 (OVCAR-3 [2]; read-out: GI50)?
**A.** The GI50 was 321 to 427 nM.

**Q.** What about the CC50 (OVCAR-3 [2]; [19]) of the same molecule?
**A.** The CC50 was over 100 µM.

**Q.** What about the GI50 (OVCAR-8 [3]; read-out: GI50) of the same molecule?
**A.** Its GI50 is 42.3 to 49 nM.

**Q.** And the TGI (OVCAR-8 [3]; read-out: TGI)?
**A.** Its TGI is 1.46 to 100 µM.

**Q.** What about the CC50 (OVCAR-8 [3]; [18]) of the same molecule?
**A.** Its CC50 is over 100 µM.

**Q.** And the growth at 0.01 µM (MOLT-4 [4])?
**A.** The growth at 0.01 µM was 75 to 83%.

**Q.** What about the growth at 0.01 µM (RPMI-8226) of the same molecule?
**A.** Its growth at 0.01 µM is 95 to 96%.

**Q.** What about the growth at 0.01 µM (A549) of the same molecule?
**A.** The growth at 0.01 µM was 90 to 92%.

**Q.** And the growth at 0.01 µM (HOP-92)?
**A.** Its growth at 0.01 µM is 58 to 74%.

**Q.** And the growth at 0.01 µM (NCI-H322M [5])?
**A.** The growth at 0.01 µM was 75 to 86%.

**Q.** And the growth at 0.01 µM (HCT-116 [6])?
**A.** Its growth at 0.01 µM is 83 to 95%.

**Q.** What about the growth at 0.01 µM (IGROV-1 [7]) of the same molecule?
**A.** The growth at 0.01 µM was 39 to 60%.

**Q.** What about the growth at 0.01 µM (OVCAR-3 [8]) of the same molecule?
**A.** Its growth at 0.01 µM is 91 to 98%.

**Q.** What about the growth at 0.01 µM (NCI/ADR-RES [9]) of the same molecule?
**A.** Its growth at 0.01 µM is 86 to 88%.

**Q.** And the growth at 0.01 µM (SN12C [10])?
**A.** The growth at 0.01 µM was 85 to 90%.

**Q.** What about the growth at 0.1 µM (MOLT-4 [11]) of the same molecule?
**A.** Its growth at 0.1 µM is 39 to 52%.

**Q.** What about the growth at 0.1 µM (NCI-H226) of the same molecule?
**A.** Its growth at 0.1 µM is 75 to 95%.

**Q.** What about the growth at 0.1 µM (NCI-H322M [12]) of the same molecule?
**A.** Its growth at 0.1 µM is 69 to 82%.

**Q.** And the growth at 0.1 µM (OVCAR-3 [13])?
**A.** Its growth at 0.1 µM is 76 to 79%.

**Q.** What about the growth at 0.1 µM (UO-31) of the same molecule?
**A.** Its growth at 0.1 µM is 46 to 50%.

**Q.** What about the growth at 1 µM (OVCAR-8 [14]) of the same molecule?
**A.** Its growth at 1 µM is 3 to 5%.

**Q.** What about the growth at 10 µM (K562) of the same molecule?
**A.** The growth at 10 µM was 7%.

**Q.** And the growth at 10 µM (KM12)?
**A.** The growth at 10 µM was 3 to 12%.

**Q.** And the growth at 10 µM (SN12C [15])?
**A.** The growth at 10 µM was 5 to 7%.

**Q.** What about the growth at 100 µM (HCT-116 [16]) of the same molecule?
**A.** The growth at 100 µM was 4%.

**Q.** And the GI50 (786-0; read-out: GI50)?
**A.** The GI50 was 236 to 334 nM.

**Q.** What about the TGI (786-0; read-out: TGI) of the same molecule?
**A.** Its TGI is 3.24 µM.

**Q.** What about the LC50 (lethal concentration, 50% cell kill) (786-0; read-out: pLC50 (converted)) of the same molecule?
**A.** Its LC50 (lethal concentration, 50% cell kill) is over 100 µM.

**Q.** And the TGI (786-0; read-out: pTGI (converted))?
**A.** Its TGI is 3.24 µM.

**Q.** And the growth at 10 µM (NCI/ADR-RES [17])?
**A.** Its growth at 10 µM is -4%.

Reference: ChEMBL document CHEMBL4270599, “Synthesis of a 3'-C-ethynyl-β-d-ribofuranose purine nucleoside library: Discovery of C7-deazapurine analogs as potent antiproliferative nucleosides” (Eur J Med Chem, 2018)
